Measured values reported in ChEMBL document CHEMBL5360664, “Design, Construction, and Screening of Diversified Pyrimidine-Focused DNA-Encoded Libraries” (ACS Med Chem Lett, 2023).

Assays:
[1] = target: T1, Bromodomain-containing protein 4 (Homo sapiens, UniProt O60885); assay: Binding affinity to human recombinant BRD4BD2 (333 to 460 residues) expressed in Escherichia coli […] (DE3) by fluorescence polarization analysis
[2] = target: T1, Bromodomain-containing protein 4; assay: Binding affinity to human recombinant BRD4BD1 (44 to 168 residues) expressed in Escherichia coli […] (DE3) by fluorescence polarization analysis

Ki [1] | Ki [2] | SMILES
1440 nM | 910 nM | CNc1nc(NCc2cccc(-c3ccc(=O)n(C)c3)c2)cc(-c2ccc(=O)n(C)c2)n1
> 100000 nM | 760 nM | CNc1cc(-c2ccc(=O)n(C)c2)nc(NCc2ccc(OC(F)(F)F)cc2)n1
> 100000 nM | 680 nM | CNc1cc(-c2ccc(=O)n(C)c2)nc(NCc2cccc3ccccc23)n1
